# Entries after “also recorded” stand apart in the source; their conditions may differ.
# What was measured:
# [1] = system: interaction between lymphocyte-specific protein tyrosine kinase (LCK) and its chaperone Hsp90; assay: Immunoprecipitation of Lck and blotting for Hsp90; format: cell-based, Human; settings: Lck immunoprecipitation, PHA stimulated lymphocytes
# Procedure: (§1) Lymphocytes were seeded in a 6 well plate (1.0·10^7/well), pretreated for 10 minutes with S3.1, S3.4 or dexamethasone and stimulated for 10 minutes with PHA. The experiment was stopped by adding a large volume of ice cold PBS to the cells. The suspension was transferred to a tube, briefly spinned down in a centrifuge and the supernatant removed. The pellet was lysed by adding cold lysis buffer (0.1% NP40, 50 mM TrisHCl, 1 mM EDTA, 1 mM EGTA, 150 mM NaCl, 200 μM Na3VO4, 10 mM NaF and protease inhibitors) and incubating 20 minutes on ice.
# The kinase Lck acts as a gate keeper to T cell receptor (TCR) related signaling as it is one of the first and most up stream kinases to be activated upon stimulation of the TCR. As downstream signaling of the TCR is inhibited by S3.1 and S3.4 treatment interactions with Lck were investigated by immunoprecipitating Lck and blotting for Hsp90. For immunprecipitation experiments 1.0·10^7 cells were used per condition. Cells were pelleted and lysed as described previously. The supernatant was precleared by adding 10 μl Protein A/G UltraLink resin (Pierce Biotechnology, Rockford, USA) for 30 minutes at 4° C. Beads were spinned down and discarded. Samples were incubated with 2 μg primary antibody and 25 μl beads for 2 hours at 4° C. Beads were washed with PBS, sample buffer was added and heated to 95° C. for 5 minutes.
# phospho-Zap70 = assay: Western blot of TCR related signaling, phospho-Zap70; format: cell-based, Human; settings: 10 min pretreatment, 10 min PHA; compared to a stimulated untreated control
# Procedure: as §1
# (§2) To investigate the cell signaling events that are affected by treatment with S3.1 and S3.4, lysates were supplemented with sample buffer (188 mM Tris-Cl (pH 6.8), 3% SDS, 30% glycerol, 0.01% bromophenol blue, 15% β-mercaptoethanol), heated to 95° C. for 5 minutes, cooled on ice and sonicated. Samples were then run on 10% SDS-PAGE gel, blotted to PVDF membrane and incubated with antibodies for phospho-Zap70 (Cell Signaling Technology (Beverly, Mass.)) and phospho-LAT (Cell Signaling Technology (Beverly, Mass.)). To show equal loading of the samples the blot was incubated with an antibody directed against beta-actin (Santa Cruz Biotechnology (Heidelberg, Germany)).
# phospho-LAT = assay: Western blot of TCR related signaling, phospho-LAT; format: cell-based, Human; settings: 10 min pretreatment, 10 min PHA; compared to a stimulated untreated control
# Procedure: as §1, §2
# [2] = system: Human peripheral blood lymphocytes (PBLs) stimulated with PHA; assay: Inhibition of T lymphocyte proliferation (tritiated thymidine); format: cell-based
smiles,measurement,setting,value
"c1ccc(CN2CCCC(c3ccnc(SCCN4CCCC4)n3)C2)cc1 (stereo not shown) [S3.4, 4-(1-benzylpiperidin-3-yl)-2-(2-(pyrrolidin-1-yl)ethylthio)-pyrimidine]",interaction between LCK and its chaperone Hsp90,[1],lost
same,phosphorylation level of kinase Zap70,phospho-Zap70,lower phosphorylation levels
same,phosphorylation level of scaffolding protein LAT,phospho-LAT,lower phosphorylation levels
same,effect on lymphocyte proliferation,[2],antiproliferative effect; also recorded: shows effect on lymphocyte proliferation

# Source: patent publication US10208017B2, “Heterocycles capable of modulating T-cell responses, and methods of using same” (Nogra Pharma Limited, priority 2012, dated 2019)
